Source: patent publication US8614223B2, “Pyrimidine hydroxy amide compounds as protein deacetylase inhibitors and methods of use thereof” (Acetylon Pharmaceuticals, Inc., priority 2010, dated 2013)

Legend:
[1] = target: HDAC6 (Homo sapiens (Human), UniProt Q9UBN7); conditions: read-out: HDAC6 IC50
[2] = target: HDAC1 (Homo sapiens (Human), UniProt Q13547); assay: HDAC enzyme assay, HDAC1; conditions: for HDAC1 fold over HDAC6 IC50 (selectivity for HDAC6): ratio HDAC1/HDAC6; for IC50: read-out: HDAC1 IC50
HDAC1, sequence (Q13547 whole entry): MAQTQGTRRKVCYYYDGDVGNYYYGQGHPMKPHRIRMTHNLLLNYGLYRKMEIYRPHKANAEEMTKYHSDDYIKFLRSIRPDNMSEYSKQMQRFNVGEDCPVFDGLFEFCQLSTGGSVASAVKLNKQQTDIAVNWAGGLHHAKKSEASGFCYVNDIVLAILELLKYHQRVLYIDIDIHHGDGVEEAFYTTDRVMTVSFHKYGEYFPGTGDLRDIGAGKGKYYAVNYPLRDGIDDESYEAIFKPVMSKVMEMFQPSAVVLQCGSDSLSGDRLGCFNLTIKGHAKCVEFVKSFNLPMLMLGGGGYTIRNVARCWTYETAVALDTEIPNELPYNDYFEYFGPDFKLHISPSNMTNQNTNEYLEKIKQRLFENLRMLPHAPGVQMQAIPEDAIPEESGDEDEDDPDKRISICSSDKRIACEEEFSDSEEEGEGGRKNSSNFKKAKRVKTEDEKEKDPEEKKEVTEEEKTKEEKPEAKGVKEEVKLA

[3] = target: HDAC3 (Homo sapiens (Human), UniProt O15379); assay: HDAC enzyme assay, HDAC3; conditions: for HDAC3 fold over HDAC6 IC50 (selectivity for HDAC6): ratio HDAC3/HDAC6; for IC50: read-out: HDAC3 IC50
HDAC3, sequence (O15379 whole entry): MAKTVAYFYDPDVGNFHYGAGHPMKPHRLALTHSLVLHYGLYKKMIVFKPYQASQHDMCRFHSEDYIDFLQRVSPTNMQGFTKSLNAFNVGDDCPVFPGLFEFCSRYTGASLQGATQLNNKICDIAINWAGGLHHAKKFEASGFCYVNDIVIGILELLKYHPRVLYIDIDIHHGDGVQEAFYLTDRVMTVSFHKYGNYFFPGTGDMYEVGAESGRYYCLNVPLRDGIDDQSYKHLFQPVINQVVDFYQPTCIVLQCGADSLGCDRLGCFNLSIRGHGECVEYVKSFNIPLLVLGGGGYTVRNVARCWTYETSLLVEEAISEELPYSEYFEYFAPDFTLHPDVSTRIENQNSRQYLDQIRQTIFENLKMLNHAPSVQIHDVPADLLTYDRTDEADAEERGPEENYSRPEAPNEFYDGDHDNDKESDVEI
HDAC3, sequence (Q9Y618 395-489 partner): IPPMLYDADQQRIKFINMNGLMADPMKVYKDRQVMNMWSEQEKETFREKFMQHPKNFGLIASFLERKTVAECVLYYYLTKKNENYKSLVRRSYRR

[4] = target: HDAC2 (Homo sapiens (Human), UniProt Q92769); assay: HDAC enzyme assay, HDAC2; conditions: for HDAC2 fold over HDAC6 IC50 (selectivity for HDAC6): ratio HDAC2/HDAC6; for IC50: read-out: HDAC2 IC50
HDAC2, sequence (Q92769 whole entry): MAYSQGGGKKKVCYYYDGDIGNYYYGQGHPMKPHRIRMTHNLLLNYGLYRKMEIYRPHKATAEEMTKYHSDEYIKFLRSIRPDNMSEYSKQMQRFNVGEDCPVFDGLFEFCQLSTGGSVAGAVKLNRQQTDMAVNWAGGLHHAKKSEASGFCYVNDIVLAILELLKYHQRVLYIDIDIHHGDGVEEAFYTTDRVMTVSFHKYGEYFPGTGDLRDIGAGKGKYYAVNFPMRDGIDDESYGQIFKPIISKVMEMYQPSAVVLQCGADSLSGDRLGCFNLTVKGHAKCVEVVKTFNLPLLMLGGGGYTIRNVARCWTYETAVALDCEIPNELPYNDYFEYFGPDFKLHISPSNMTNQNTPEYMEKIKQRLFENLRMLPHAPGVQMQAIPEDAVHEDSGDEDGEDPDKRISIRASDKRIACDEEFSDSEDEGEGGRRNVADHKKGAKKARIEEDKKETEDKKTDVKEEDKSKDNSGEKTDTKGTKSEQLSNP

HDAC6, sequence (Q9UBN7 whole entry): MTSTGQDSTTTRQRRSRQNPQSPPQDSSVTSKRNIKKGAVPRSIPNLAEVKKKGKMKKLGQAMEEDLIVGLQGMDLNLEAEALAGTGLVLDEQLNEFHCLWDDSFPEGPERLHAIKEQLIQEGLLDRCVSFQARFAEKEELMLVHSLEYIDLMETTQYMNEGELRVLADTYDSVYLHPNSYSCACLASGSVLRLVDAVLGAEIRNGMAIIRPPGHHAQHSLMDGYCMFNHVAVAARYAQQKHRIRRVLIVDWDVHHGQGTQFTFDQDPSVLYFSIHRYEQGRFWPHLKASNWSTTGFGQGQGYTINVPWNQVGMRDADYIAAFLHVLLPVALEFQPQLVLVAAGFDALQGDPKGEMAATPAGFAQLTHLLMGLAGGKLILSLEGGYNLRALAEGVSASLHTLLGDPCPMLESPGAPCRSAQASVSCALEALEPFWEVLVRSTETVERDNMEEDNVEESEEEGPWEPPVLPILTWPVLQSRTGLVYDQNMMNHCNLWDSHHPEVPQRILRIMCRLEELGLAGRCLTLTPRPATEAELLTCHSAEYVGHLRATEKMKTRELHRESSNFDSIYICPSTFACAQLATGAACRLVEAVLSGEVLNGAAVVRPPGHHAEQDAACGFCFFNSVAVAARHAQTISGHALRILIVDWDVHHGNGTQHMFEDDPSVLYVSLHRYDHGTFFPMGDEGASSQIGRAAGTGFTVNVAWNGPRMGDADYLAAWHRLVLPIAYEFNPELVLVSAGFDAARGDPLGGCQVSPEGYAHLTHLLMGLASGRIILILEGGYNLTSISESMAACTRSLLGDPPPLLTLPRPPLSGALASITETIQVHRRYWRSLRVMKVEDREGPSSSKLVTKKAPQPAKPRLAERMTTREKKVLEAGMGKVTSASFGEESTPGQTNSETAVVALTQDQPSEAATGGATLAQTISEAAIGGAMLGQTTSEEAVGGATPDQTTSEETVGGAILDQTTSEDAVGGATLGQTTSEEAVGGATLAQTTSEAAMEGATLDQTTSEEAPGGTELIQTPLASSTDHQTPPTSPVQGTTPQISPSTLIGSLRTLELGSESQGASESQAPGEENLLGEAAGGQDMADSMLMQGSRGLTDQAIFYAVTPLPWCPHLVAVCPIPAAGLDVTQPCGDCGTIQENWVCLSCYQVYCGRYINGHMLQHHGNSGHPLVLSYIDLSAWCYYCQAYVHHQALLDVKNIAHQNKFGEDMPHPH

Structure (SMILES)	IC50 [1] [nM]	HDAC1 fold over HDAC6 IC50 (selectivity for HDAC6) [2]	HDAC3 fold over HDAC6 IC50 (selectivity for HDAC6) [3]	HDAC2 fold over HDAC6 IC50 (selectivity for HDAC6) [4]	IC50 [2] [nM]	IC50 [3] [nM]	IC50 [4] [nM]
O=C(NO)c1cnc(Nc2ccccc2)nc1 [Compound 1, N-hydroxy-2-(phenylamino)pyrimidine-5-carboxamide]	7	20x	27x	30x	–	–	–
O=C(NO)c1cnc(Nc2ccc(Cl)c(Cl)c2)nc1 [Compound 2]	5	–	–	–	264	299	–
O=C(NO)c1cnc(Nc2ccc(F)cc2)nc1 [Compound 3]	8	(26.7x)	(44.9x)	(44.1x)	210	354	347
Cc1ccc(Nc2ncc(C(=O)NO)cn2)cc1 [Compound 4]	9	(22x)	(32.9x)	(32.8x)	195	291	290
COc1ccc(Nc2ncc(C(=O)NO)cn2)cc1 [Compound 5]	15	(16.3x)	(27.8x)	(26x)	247	421	395
O=C(NO)c1cnc(Nc2ccc(Cl)cc2)nc1 [Compound 6]	20	(10.1x)	(13.3x)	(11.6x)	202	266	231
O=C(NO)c1cnc(Nc2ccccc2Cl)nc1 [Compound 7]	42	(9.9x)	(14.4x)	(14.9x)	415	606	629
CN(c1ccc(Cl)c(Cl)c1)c1ncc(C(=O)NO)cn1 [Compound 8]	38	–	–	–	–	219	–
O=C(NO)c1cnc(Nc2ccc([N+](=O)[O-])c(C(F)(F)F)c2)nc1 [Compound 10]	10	(32.6x)	(42.6x)	(62.5x)	329	430	631
O=C(NO)c1cnc(Nc2cc(Cl)ccc2Cl)nc1 [Compound 12]	15	(14.1x)	(23.5x)	(30.2x)	212	352	453
O=C(NO)c1cnc(Nc2cc(C(F)(F)F)cc(C(F)(F)F)c2)nc1 [Compound 15]	14	(102.2x)	(134.3x)	(100.8x)	1410	1850	1390
O=C(NO)c1cnc(Nc2c(F)c(F)cc(F)c2F)nc1 [Compound 16]	21	(15.7x)	(28.3x)	(18.1x)	332	600	384
O=C(NO)c1cnc(Nc2cccc(Cl)c2)nc1 [Compound 17]	5	(33.5x)	(36.5x)	(29.6x)	182	198	161
O=C(NO)c1cnc(Nc2cc(F)cc(F)c2)nc1 [Compound 18]	13	(10.8x)	(14.1x)	13.5x)	136	177	170
CC(Nc1ncc(C(=O)NO)cn1)c1ccccc1 (stereo not drawn) [Compound 32]	2	–	–	–	–	–	–
O=C(NO)c1cnc(NCCc2ccccc2)nc1 [Compound 41]	4	–	–	–	214	326	–
O=C(NO)c1cnc(NCCc2ccc(Cl)cc2)nc1 [Compound 44]	11	–	–	–	173	307	–
O=C(NO)c1cnc(NCc2ccc3c(c2)OCO3)nc1 [Compound 46]	–	–	–	–	40	58	53
COc1cc(F)ccc1CNc1ncc(C(=O)NO)cn1 [Compound 49]	–	–	–	–	219	303	338
Cc1cc(Cl)ccc1CNc1ncc(C(=O)NO)cn1 [Compound 52]	3	–	–	–	185	–	–

Structure (SMILES)	IC50 [1] [nM]	HDAC1 fold over HDAC6 IC50 (selectivity for HDAC6) [2]	HDAC3 fold over HDAC6 IC50 (selectivity for HDAC6) [3]	HDAC2 fold over HDAC6 IC50 (selectivity for HDAC6) [4]	IC50 [2] [nM]	IC50 [3] [nM]	IC50 [4] [nM]
C[C@H](Nc1ncc(C(=O)NO)cn1)c1ccccc1 [Compound 61]	37	–	–	–	–	–	–
C[C@@H](Nc1ncc(C(=O)NO)cn1)c1ccccc1 [Compound 62]	2	–	–	–	–	–	–
C[C@H](Nc1ncc(C(=O)NO)cn1)c1ccccc1 [Compound 65]	19	–	–	–	–	–	–
C[C@@H](Nc1ncc(C(=O)NO)cn1)c1ccccc1 [Compound 66]	1	–	–	–	–	–	–
CC(Nc1ncc(C(=O)NO)cn1)c1ccccc1 (stereo not drawn) [Compound 67]	2	–	–	–	–	–	–
O=C(NO)c1cnc(NCc2ccncc2)nc1 [Compound 69]	5	–	–	–	204	299	–
CC(C)(Nc1ncc(C(=O)NO)cn1)c1ccccc1F [Compound 71]	–	–	–	–	500	1260	912
O=C(NO)c1cnc(NC2(c3ccccc3F)CC2)nc1 [Compound 82]	–	–	–	–	16	22	18
O=C(NO)c1cnc(NC2(c3cccc(F)c3)CC2)nc1 [Compound 87]	–	–	–	–	85	233	116
O=C(NO)c1cnc(NC2(c3cccc(Cl)c3)CC2)nc1 [Compound 94]	–	–	–	–	22	50	–
O=C(NO)c1cnc(NC2(c3cccs3)CC2)nc1 [Compound 98]	4	–	–	–	147	4250	–
COc1cccc(C2(Nc3ncc(C(=O)NO)cn3)CC2)c1 [Compound 120]	–	–	–	–	38	128	53
O=C(NO)c1cnc(NC2(c3cccc(C(F)(F)F)c3)CC2)nc1 [Compound 121]	–	–	–	–	27	99	32
Cc1ccccc1C1(Nc2ncc(C(=O)NO)cn2)CC1 [Compound 127]	–	–	–	–	50	119	57
O=C(NO)c1cnc(NC2(c3ccc(F)c(Cl)c3)CC2)nc1 [Compound 131]	–	–	–	–	17	62	19
Cc1cccc(C2(Nc3ncc(C(=O)NO)cn3)CC2)c1 [Compound 134]	–	–	–	–	47	99	40
O=C(NO)c1cnc(NC2(c3ccc(Cl)cc3)CC2)nc1 [Compound 136]	–	–	–	–	45	107	40
O=C(NO)c1cnc(NC2(c3ccc(Cl)c(Cl)c3)CC2)nc1 [Compound 141]	–	–	–	–	13	54	17
O=C(NO)c1cnc(NC2(c3cc(Cl)cc(Cl)c3)CC2)nc1 [Compound 146]	–	–	–	–	16	57	22
O=C(NO)c1cnc(NC2(c3cccc(Cl)c3)CCCC2)nc1 [Compound 153]	–	–	–	–	528	1260	491
